{"source": "patent US9163044B2", "about": "“Carbon monoxide releasing molecules and uses thereof” (Alfama, Inc., priority 2011, dated 2015)", "key": {"[1]": {"experiment": "CO released from Compound 3b in phosphate buffer pH 7.4 alone or with human or rat microsomes (FIG. 8)", "assay_type": "in vitro ADME", "details": "37° C.", "protocol": "The vials were closed and after mixing, the samples were warmed to 37° C. for 5 minutes before an aliquot (25 μL, 0.5 mg protein content) of rat liver microsomes (BD, Cat. No. 452511) or human liver microsomes (BD, Cat. No. 452161) was added to each vial. In parallel analogous vials with all the reagents except the microsomes were prepared. Due to the light-sensitivity of the molybdenum compounds, the reactions were performed in the dark. The samples were incubated at 37° C. and gas samples of the headspace (from 100 μL to 500 μL) of the vials were removed with a gas-tight syringe after 5, 10, 15, 30, and 60 minutes (in some cases samples were also taken at 1, 2, 3 or 4 minutes) upon microsomes addition. The gas samples were then injected into empty sealed vials (8 mL volume) and the amount of CO present in the vials was measured using GC-RCP.\nFIG. 8 depicts the amount of CO released from Compound 3b, expressed in equivalents of CO, in phosphate buffer pH 7.4 (“buffer”), phosphate buffer pH 7.4 in the presence of human microsomes (“human”) or rat microsomes (“rat”). The assay was performed in closed vials during 1 hour at 37° C. A gas aliquot was removed from the air space of the vials and CO concentration was determined by GC-RCP at different time points."}, "[2]": {"experiment": "carboxyhemoglobin (COHb) levels in treated mice", "assay_type": "in vivo, CD-1 female mice", "protocol": "FIG. 9 depicts the percentage of carboxyhemoglobin (CO-Hb) measured in CD-1 female mice following Compound 3b administration at 300 mg/kg, intravenously. The CO-Hb was quantified over 80 min by using an oximeter (Avoximeter 4000 from A-vox Instruments). The base line of CO-Hb measured with this instrument is 3-4%."}, "[3]": {"experiment": "preliminary safety studies in mice", "assay_type": "in vivo", "details": "doses up to 1 g/kg"}, "[4]": {"tested_on": "primary hepatocytes from C57BL/6 mice", "experiment": "ex-vivo model of apoptosis (ActD/TNF-α)", "assay_type": "cell-based, mouse", "details": "2×150 μg/0.5 mL well (2×600 μM), 24 hours", "protocol": "FIGS. 21A-21B depict the effect of Compound 3b in an ex-vivo model of apoptosis. Apoptosis of primary hepatocytes from C57BL/6 mice was induced with Actinomycin D (ActD; 200 ng/mL) and Tumour Necrosis Factor-α (TNF-α; 10 ng/mL). Compound 3b was added to the cultures 1 hour before and 1 hour after the addition of the apoptosis inducers ActD/TNF-α. Compound 3b was tested at concentrations of 25, 50, 100 and 150 μg/0.5 mL well. Hepatocytes survival was determined 24 hours after the addition of the apoptosis inducers. FIG. 21A: Percentage of increase in survival ActD/TNF-α treated cells in the presence of Compound 3b, relative to cells treated with only the apoptosis inducers. FIG. 21B: Toxicity of the Compound 3b doses on murine hepatocytes (not treated with apoptosis inducers). Data are the mean±S.D. of 3-5 independent experiments (3-5 livers from different mice)."}}}
{"smiles": "[C-]#[N+]C(C)(C)C(=O)O.[C-]#[N+]C(C)(C)C(=O)O.[C-]#[N+]C(C)(C)C(=O)O.[C-]#[O+].[C-]#[O+].[C-]#[O+].[Mo]", "note": "[Compound 3b, tricarbonyl[tris(2-isocyano-2-methyl-propionic acid)]Mo(0)]", "values": [{"measurement": "factor by which microsomes accelerate CO release", "setting": "[1]; human or rat microsomes versus buffer, 1 hour", "value": "4.0-5.5"}, {"measurement": "CO released in pH 7.4 buffer in 1 hour", "setting": "[1]; phosphate buffer pH 7.4, no microsomes", "value": "0.25 mol equiv. of CO"}, {"measurement": "COHb in blood", "setting": "[2]; 300 mg/kg i.v., over 80 min, base line 3-4%", "value": "≤ 7.5", "unit": "%"}, {"measurement": "symptomatic levels of COHb in blood", "setting": "[2]; therapeutic doses, mice", "value": "did not cause symptomatic levels of COHb"}, {"measurement": "toxicity in preliminary safety studies", "setting": "[3]", "value": "no toxicity"}, {"measurement": "increase in survival of ActD/TNF-α treated hepatocytes relative to inducers only", "setting": "[4]", "value": "more than 125%"}]}
